One experiment has as its system TNFα. In words: Inhibition of TNFα in LPS-stimulated macrophage cell cultures (ELISA). It counts as cell-based. The note with it: LPS-stimulated macrophages. The method, boiled down:
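LPS-activated macrophage cultures, grown as in the PGE2 assay, treated with compounds; TNFα production/release measured by ELISA.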
(In general: ELISA stands for enzyme-linked immunosorbent assay.)

The conditions of experiment [1]: even at doses several thousand times higher than the ED50 of HU-210; cited from earlier work.
The nature of experiment [2]: Body weight gain during staircase testing after transient MCAo. Format: in vivo, rats. The note with it: compared to base line. As to the method:
Animals were allowed to recover from the surgery for five days. The mild food deprivation was re-employed during the days following the ischemic insult. They were tested in the staircase box using the above method for 9-12 days. Animals were weighed twice a week during this period.
Animals were kept under mild food deprivation during the staircase testing (except during weekends). Under these conditions, the following results were observed: • Sham and PRS-211,095 10 mg/kg treated rats gained the maximal body weight (15 and 17% respectively compared to base line). […] These differences were not statistically different.

Experiment [3] deals with Nitric Oxide Synthase (NOS). In words: Inhibition of nitric oxide synthase (nitrite fluorimetric assay, LPS-stimulated macrophage cultures). Format: cell-based. The note with it: LPS-stimulated macrophages. Summed up: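 Nitrite/nitrate end-products of NOS quantified by in vitro fluorimetric assay in macrophage cultures stimulated with LPS. Compounds tested for inhibition of NOS activity.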

The test system of another experiment is AMPA. In words: Radioligand binding: inhibition of AMPA binding to membranes. The arrangement: species or system rat.
Another experiment has as its system ear edema model in mice. In words: Ear edema model. Format: in vivo. The settings on record: Mus musculus, Croton oil (CO) as inducer, IP. The method, boiled down:
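Mice received Croton oil or arachidonic acid as inflammation inducer; test compounds were scored for preventing or diminishing the resulting ear edema.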

Another experiment deals with kainic acid. As to the kind of experiment: Radioligand binding: inhibition of kainic acid binding to membranes. More on the design: species or system rat.

Consider `CCCCCCC(C)(C)c1cc(O)c2c(c1)OC(C)(C)[C@H]1CC=C(CO)C[C@H]21` [211,007-000 HU-211, 1,1 dimethyl heptyl-(3 S,4S)-7-hydroxy-Δ^6-tetrahydrocannabinol, reference compound], for which the inhibition at 10 µM stood at 33% in the experiment on TNFα and 20% in experiment [3]. The “cannabimimetic activity” value in experiment [1] was “inactive”. This compound also returned a body weight gain in experiment [2] (5 mg/kg) of 7%. Also, the “inhibition of AMPA binding” value in the experiment on AMPA is “unable to inhibit”. Besides, in the experiment with ear edema model in mice, the ED50 came to 25 µmol/kg. Also, the “inhibition of kainic acid binding” value in the experiment with kainic acid is recorded as “unable to inhibit”.

In the case of `CCCCCCC(C)(C)c1cc(O)c2c(c1)OC(C)(C)[C@H]1CC=C(Cn3ccnc3)C[C@H]21` (single isomer, unassigned) [211,095-000], the inhibition at 10 µM came to 11% in the experiment on TNFα and 14% in experiment [3]. In addition, the body weight gain result in experiment [2] (0.5 mg/kg) is “did not gain weight”; in experiment [2] (2.5 mg/kg) it was “did not gain weight”; in experiment [2] (5 mg/kg) it was 4%; in experiment [2] (10 mg/kg), 17%. The ED50 with ear edema model in mice was found to be 29 µmol/kg.

By inhibition is commonly meant the drop in the measured response relative to a control, in per cent. Higher therefore signals a strong effect. One may read the ED50 as the dose that gives a 50% effect, or the effect in half of the subjects. Low values mean an effect at a small dose, high ones a need for a large dose.

(Values after EP1785417A2, “Novel non-psychotropic cannabinoids” (priority 2000, dated 2001).)
